Earlier results, collected in paper PMC7941644, “Identification and Development of Therapeutics for COVID-19” (ArXiv, 2021).
Where two headings read alike, the source gives them in different places.

Columns and labels:
SARS-CoV-1 = conditions: cell culture assays
MERS-CoV = conditions: cell culture assays
COVID-19 [1] = system: COVID-19; parameters: method as in PMID 32445440
COVID-19 [2] = system: COVID-19
COVID-19 [3] = system: COVID-19; parameters: method as in PMID 32821939; conditions: moderate COVID-19
COVID-19 [4] = system: COVID-19; parameters: method as in PMID 32275812; conditions: of the 53 patients evaluated; 200 mg IV day 1, 100 mg/day for 9 days; no control group

## CCC(CC)COC(=O)[C@H](C)N[P@](=O)(OC[C@H]1O[C@@](C#N)(c2ccc3c(N)ncnn23)[C@H](O)[C@@H]1O)Oc1ccccc1 [remdesivir]
SARS-CoV-1
  IC50, polymerase and replication: submicromolar
MERS-CoV
  IC50, polymerase and replication: submicromolar
COVID-19 [1]; 95% CI 0.36 to 0.83
  hazard ratio for death by 14 days: 0.55
COVID-19 [1]; 95% CI 0.52 to 1.03
  hazard ratio for death at day 29: 0.73
COVID-19 [1]; 95% CI 1.12 to 1.49, p < 0.001
  rate ratio for recovery: 1.29
COVID-19 [1]; 131 of 532 patients, placebo 31.6%
  serious adverse events: 24.6%
COVID-19 [1]; patients with severe disease, 95% CI 1.12 to 1.52
  rate ratio for recovery: 1.31
COVID-19 [1]; patients with severe disease, versus 18
  recovery period: 11 days
COVID-19 [1]; placebo 11.9%
  Kaplan-Meier estimate of mortality by 14 days: 6.7%
COVID-19 [1]; placebo 15.2%
  Kaplan-Meier estimate of mortality at day 29: 11.4%
COVID-19 [1]; placebo 15 days
  median recovery time: 10 days
COVID-19 [2]; 2,750 patients in remdesivir group, control 303 of 2,708
  patients who died during initial hospitalization: 301
COVID-19 [2]; meta-analysis of Solidarity and three other remdesivir studies, p = 0.20
  overall rate ratio for death: 0.91
COVID-19 [2]; vs control, no placebo
  rate ratio of in-hospital death: 0.95
COVID-19 [3]
  effect of treatment for five days relative to standard of care: small effect of treatment
COVID-19 [4]
  clinical improvement: 68%
